Reference: patent US20220125051A1, “PRE-HARVEST DESICCATION METHOD” (SYNGENTA CROP PROTECTION AG, priority 2019, published 2022)
Values joined by “and” are separate entries in the source; they are usually repeats but may differ in a detail not shown here. Identical values can stand only once. Like-named read-outs stand apart in the source and are kept apart here.

How the values were obtained:
Type in all cases: in vivo
[1] = tested on: Brassica napus (BRSNN); assay: Pre-harvest desiccation of crop plants; conditions: Table E, evaluated after 7 and 14 days (which not stated), 100=total damage to plant, 0=no damage
Protocol: (§1) Seeds of a variety of test species were sown in standard loam based soil in pots. After cultivation from between 21 and 28 days (post-emergence) under controlled conditions in a glasshouse (at 24/16° C., day/night; 14 hours light; 65% humidity) for warm climate species and (at 20/16° C. day/night; 15 hours light; 65% humidity) for cool climate species.
(§2) The plants were sprayed with an aqueous spray solution derived from dissolving the technical active ingredient formula in a small amount of acetone and a special solvent and emulsifier mixture referred to as IF50 (11.12% Emulsogen EL360 TM+44.44% N-methylpyrrolidone+44.44% Dowanol DPM glycol ether), to create a 50 g/I solution which was then diluted to required concentration using a solution of 1% Empicol ESC70 (Sodium lauryl ether sulphate)+1% ammonium sulphate in water as diluent.
(§3) The delivery of the aqueous spray solution was via a laboratory track sprayer which delivered the aqueous spray composition at a rate of 200 litres per hectare, using a flat fan nozzle (Teejet 11002VS) and an application volume of 200 litre/ha (at 2 bar).
(§4) The test plants were then grown in a glasshouse under controlled conditions (at 24/16° C., day/night; 14 hours light; 65% humidity) for warm climate species and (at 20/16° C. day/night; 15 hours light; 65% humidity) for cool climate species and watered twice daily. After 7 and 14 days the test was evaluated (100=total damage to plant; 0=no damage to plant).
(§5) A value of n/t indicates not tested.
(§6) Glycine Max (GLXMA), Solanum turberosum (SOLTU), Gossypium hirsutum (GOSHI), Brassica napus (BRSNN), Helianthus annus (HELAN)

[2] = tested on: Glycine Max (GLXMA); assay: Pre-harvest desiccation of crop plants; conditions: Table E, evaluated after 7 and 14 days (which not stated), 100=total damage to plant, 0=no damage
Protocol: as §1, §2, §3, §4, §5, §6

[3] = tested on: Gossypium hirsutum (GOSHI); assay: Pre-harvest desiccation of crop plants; conditions: Table E, evaluated after 7 and 14 days (which not stated), 100=total damage to plant, 0=no damage
Protocol: as §1, §2, §3, §4, §5, §6

[4] = tested on: Solanum turberosum (SOLTU); assay: Pre-harvest desiccation of crop plants; conditions: Table E, evaluated after 7 and 14 days (which not stated), 100=total damage to plant, 0=no damage
Protocol: as §1, §2, §3, §4, §5, §6

[5] = tested on: Digitaria sanguinalis (DIGSA); assay: Post-emergence efficacy, Method A; conditions: Application rate 500 g/Ha; evaluated after 13 days; 100=total damage to plant, 0=no damage to plant
Method in brief: (§7)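 Post-emergence spray on 14-day-old glasshouse plants (24/16 °C day/night, 14 h photoperiod, 65% humidity). Test material was taken up in acetone and IF50 emulsifier mix, then diluted with sodium lauryl ether sulphate (0.25% or 1%) plus 1% ammonium sulphate. Damage was rated 13 days later, 100 = total.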

[6] = tested on: Echinochloa crus-galli (ECHCG); assay: Post-emergence efficacy, Method A; conditions: Application rate 500 g/Ha; evaluated after 13 days; 100=total damage to plant, 0=no damage to plant
Method in brief: as §7

[7] = tested on: Eleusine indica (ELEIN); assay: Post-emergence efficacy, Method A; conditions: Application rate 500 g/Ha; evaluated after 13 days; 100=total damage to plant, 0=no damage to plant
Method in brief: as §7

[8] = tested on: Euphorbia heterophylla (EPHHL); assay: Post-emergence efficacy, Method A; conditions: Application rate 500 g/Ha; evaluated after 13 days; 100=total damage to plant, 0=no damage to plant
Method in brief: as §7

[9] = tested on: Lolium perenne (LOLPE); assay: Post-emergence efficacy, Method A; conditions: Application rate 500 g/Ha; evaluated after 13 days; 100=total damage to plant, 0=no damage to plant
Method in brief: as §7

[10] = tested on: Setaria faberi (SETFA); assay: Post-emergence efficacy, Method A; conditions: Application rate 500 g/Ha; evaluated after 13 days; 100=total damage to plant, 0=no damage to plant
Method in brief: as §7

[11] = tested on: Amaranthus retroflexus (AMARE); assay: Post-emergence efficacy, Method B; conditions: read-out: Control of weed species after post-emergence application, AMARE
Protocol: (§8) An “instant formulation”, known as the IF50, containing 50 g/L of the “technical” (i.e. unformulated) active ingredient was prepared by dissolving the active ingredient in a mixture of organic solvents and emulsifier, details of which are provided in the table. This IF50 was then mixed with a small, variable amount of acetone to aid dissolution, before addition of an aqueous solution of 1% v/v ammonium sulphate+1% v/v Empicol ESC70 (Sodium lauryl ether sulphate) adjuvant, as the aqueous diluent, to form an aqueous spray solution which contains a predetermined concentration of the active ingredient (which varies depending on the application rate of the active ingredient to the plants).
(§9) This aqueous spray solution was then sprayed onto the plants, after about 12 days' cultivation. The plants were grown from seeds sown in standard soil, placed in a glasshouse under controlled conditions (at 24/18° C. or 20/16° C., day/night; 16 hours light; 65% humidity). After spray application the plants were then grown on in a glasshouse under the same conditions and watered twice daily. […] the test was evaluated (100=total damage to plant; 0=no damage to plant).
(§10) Ipomoea hederacea (IPOHE), Euphorbia heterophylla (EPHHL), Chenopodium album (CHEAL), Amaranthus retroflexus (AMARE), Lolium perenne (LOLPE), Digitaria sanguinalis (DIGSA), Eleusine indica (ELEIN), Echinochloa crus-galli (ECHCG), Setaria faberi (SETFA)

[12] = tested on: Chenopodium album (CHEAL); assay: Post-emergence efficacy, Method B; conditions: read-out: Control of weed species after post-emergence application, CHEAL
Protocol: as §8, §9, §10

[13] = tested on: Digitaria sanguinalis (DIGSA); assay: Post-emergence efficacy, Method B; conditions: read-out: Control of weed species after post-emergence application, DIGSA
Protocol: as §8, §9, §10

[14] = tested on: Echinochloa crus-galli (ECHCG); assay: Post-emergence efficacy, Method B; conditions: read-out: Control of weed species after post-emergence application, ECHCG
Protocol: as §8, §9, §10

[15] = tested on: Eleusine indica (ELEIN); assay: Post-emergence efficacy, Method B; conditions: read-out: Control of weed species after post-emergence application, ELEIN
Protocol: as §8, §9, §10

[16] = tested on: Euphorbia heterophylla (EPHHL); assay: Post-emergence efficacy, Method B; conditions: read-out: Control of weed species after post-emergence application, EPHHL
Protocol: as §8, §9, §10

[17] = tested on: Ipomoea hederacea (IPOHE); assay: Post-emergence efficacy, Method B; conditions: read-out: Control of weed species after post-emergence application, IPOHE
Protocol: as §8, §9, §10

[18] = tested on: Lolium perenne (LOLPE); assay: Post-emergence efficacy, Method B; conditions: read-out: Control of weed species after post-emergence application, LOLPE
Protocol: as §8, §9, §10

[19] = tested on: Setaria faberi (SETFA); assay: Post-emergence efficacy, Method B; conditions: read-out: Control of weed species after post-emergence application, SETFA
Protocol: as §8, §9, §10

[20] = Method B, 1000 g/Ha, 100=total damage to plant, 0=no damage

O=S(=O)([O-])CC[n+]1ccc(-c2ncccn2)cn1 [Compound A1, 2-(4-pyrimidin-2-ylpyridazin-1-ium-1-yl)ethanesulfonate]
Post-emergence dessication efficacy, BRSNN ([1]; 150 g/Ha): 33
Post-emergence dessication efficacy, BRSNN ([1]; 300 g/Ha): 55
Post-emergence dessication efficacy, BRSNN ([1]; 600 g/Ha): 70
Post-emergence dessication efficacy, GLXMA ([2]; 150 g/Ha): 68
Post-emergence dessication efficacy, GLXMA ([2]; 300 g/Ha): 94
Post-emergence dessication efficacy, GLXMA ([2]; 600 g/Ha): 98
Post-emergence dessication efficacy, GOSHI ([3]; 150 g/Ha): 99
Post-emergence dessication efficacy, GOSHI ([3]; 300 g/Ha): 98
Post-emergence dessication efficacy, GOSHI ([3]; 600 g/Ha): 96
Post-emergence dessication efficacy, SOLTU ([4]; 150 g/Ha): 38
Post-emergence dessication efficacy, SOLTU ([4]; 300 g/Ha): 90
Post-emergence dessication efficacy, SOLTU ([4]; 600 g/Ha): 60

O=S(=O)([O-])CC[n+]1ccc(-c2cccnn2)cn1 [Compound A5, 2-(4-pyridazin-3-ylpyridazin-1-ium-1-yl)ethanesulfonate]
Post-emergence dessication efficacy, BRSNN ([1]; 150 g/Ha): 50
Post-emergence dessication efficacy, BRSNN ([1]; 300 g/Ha): 72
Post-emergence dessication efficacy, BRSNN ([1]; 600 g/Ha): 82
Post-emergence dessication efficacy, GLXMA ([2]; 150 g/Ha): 83
Post-emergence dessication efficacy, GLXMA ([2]; 300 g/Ha): 93
Post-emergence dessication efficacy, GLXMA ([2]; 600 g/Ha): 100
Post-emergence dessication efficacy, GOSHI ([3]; 150 g/Ha): 82
Post-emergence dessication efficacy, GOSHI ([3]; 300 g/Ha): 98
Post-emergence dessication efficacy, GOSHI ([3]; 600 g/Ha): 100
Post-emergence dessication efficacy, SOLTU ([4]; 150 g/Ha): 27
Post-emergence dessication efficacy, SOLTU ([4]; 300 g/Ha): 53
Post-emergence dessication efficacy, SOLTU ([4]; 600 g/Ha): 60

O=C(O)CC[n+]1ccc(-c2ncccn2)cn1.[Cl-] [Compound A26, 3-(4-pyrimidin-2-ylpyridazin-1-ium-1-yl)propanoic acid chloride]
Control of weed species after post-emergence application, DIGSA [5]: 100
Control of weed species after post-emergence application, ECHCG [6]: 100
Control of weed species after post-emergence application, ELEIN [7]: 100
Control of weed species after post-emergence application, EPHHL [8]: 100
Control of weed species after post-emergence application, LOLPE [9]: 90
Control of weed species after post-emergence application, SETFA [10]: 100
Post-emergence dessication efficacy, BRSNN ([1]; 150 g/Ha): 65
Post-emergence dessication efficacy, BRSNN ([1]; 300 g/Ha): 97
Post-emergence dessication efficacy, BRSNN ([1]; 600 g/Ha): 99
Post-emergence dessication efficacy, GLXMA ([2]; 150 g/Ha): 96
Post-emergence dessication efficacy, GLXMA ([2]; 300 g/Ha): 93
Post-emergence dessication efficacy, GLXMA ([2]; 600 g/Ha): 99
Post-emergence dessication efficacy, GOSHI ([3]; 150 g/Ha): 100
Post-emergence dessication efficacy, GOSHI ([3]; 300 g/Ha): 100
Post-emergence dessication efficacy, GOSHI ([3]; 600 g/Ha): 100
Post-emergence dessication efficacy, SOLTU ([4]; 150 g/Ha): 62
Post-emergence dessication efficacy, SOLTU ([4]; 300 g/Ha): 95
Post-emergence dessication efficacy, SOLTU ([4]; 600 g/Ha): 73

Nc1ccnc(-c2cc[n+](CCC(=O)O)nc2)n1 [Compound A41]
pest or weed control at 1000 g/ha [11]: 100%
pest or weed control at 1000 g/ha [12]: 90%
pest or weed control at 1000 g/ha [13]: 100%
pest or weed control at 1000 g/ha [14]: 100%
pest or weed control at 1000 g/ha [15]: 50%
pest or weed control at 1000 g/ha [16]: 100%
pest or weed control at 1000 g/ha [17]: 20%
pest or weed control at 1000 g/ha [18]: 60%
pest or weed control at 1000 g/ha [19]: 100%

N#C[N-]C(=O)CC[n+]1ccc(-c2ncccn2)cn1 [Compound A226]
pest or weed control at 1000 g/ha [11, 20]: 100%
pest or weed control at 1000 g/ha [12, 20]: 100%
pest or weed control at 1000 g/ha [13, 20]: 100%
pest or weed control at 1000 g/ha [14, 20]: 100%
pest or weed control at 1000 g/ha [17, 20]: 100%
pest or weed control at 1000 g/ha [18, 20]: 70%
pest or weed control at 1000 g/ha [19, 20]: 70%

Cl.O=C(O)CC[n+]1ccc(-c2cccnn2)cn1.[Cl-] [Compound A234, 3-(4-pyridazin-1-ium-3-ylpyridazin-1-ium-1-yl)propanoic acid dichloride]
Post-emergence dessication efficacy, BRSNN ([1]; 75 g/Ha): 77
Post-emergence dessication efficacy, BRSNN ([1]; 150 g/Ha): 99
Post-emergence dessication efficacy, BRSNN ([1]; 300 g/Ha): 100
Post-emergence dessication efficacy, BRSNN ([1]; 600 g/Ha): 100
Post-emergence dessication efficacy, GLXMA ([2]; 75 g/Ha): 25
Post-emergence dessication efficacy, GLXMA ([2]; 150 g/Ha): 97 and 52
Post-emergence dessication efficacy, GLXMA ([2]; 300 g/Ha): 97 and 67
Post-emergence dessication efficacy, GLXMA ([2]; 600 g/Ha): 97 and 63
Post-emergence dessication efficacy, GOSHI ([3]; 75 g/Ha): 33
Post-emergence dessication efficacy, GOSHI ([3]; 600 g/Ha): 100 and 50
Post-emergence dessication efficacy, SOLTU ([4]; 75 g/Ha): 7
